Assay results as given in ChEMBL document CHEMBL1201862, “PubChem BioAssay data set” (2004).
Active and inactive are the calls of the source.

How the values were obtained:
[1] = target: T1, Oxysterols receptor LXR-beta (Homo sapiens, UniProt P55055); format: functional, cell-based
T1 sequence (P55055 whole entry): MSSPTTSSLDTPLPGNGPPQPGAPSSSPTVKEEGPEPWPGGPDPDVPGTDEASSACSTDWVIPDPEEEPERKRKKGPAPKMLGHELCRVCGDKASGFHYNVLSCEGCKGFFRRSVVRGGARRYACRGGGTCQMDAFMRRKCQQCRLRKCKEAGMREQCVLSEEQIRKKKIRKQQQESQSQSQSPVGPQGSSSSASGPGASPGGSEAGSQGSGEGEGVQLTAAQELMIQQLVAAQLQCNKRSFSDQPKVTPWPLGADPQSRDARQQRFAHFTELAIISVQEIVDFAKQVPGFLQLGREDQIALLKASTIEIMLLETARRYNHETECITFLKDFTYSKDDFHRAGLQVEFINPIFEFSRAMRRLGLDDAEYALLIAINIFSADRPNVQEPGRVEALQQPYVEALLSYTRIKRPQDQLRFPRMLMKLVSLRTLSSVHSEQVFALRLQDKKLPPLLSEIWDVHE

[2] = cells
[3] = target: T2, Polyadenylate-binding protein 1 (Homo sapiens, UniProt P11940); experiment: PABP1 MLLE–PAM2 interaction inhibitors, dose response, miRNA deadenylation inhibitor project, biochemical, fluorescence polarization, Cy5-PAM2 peptide, secondary (AID 602260); format: functional; conditions: read-out: IC50_Mean
T2 sequence (P11940 whole entry): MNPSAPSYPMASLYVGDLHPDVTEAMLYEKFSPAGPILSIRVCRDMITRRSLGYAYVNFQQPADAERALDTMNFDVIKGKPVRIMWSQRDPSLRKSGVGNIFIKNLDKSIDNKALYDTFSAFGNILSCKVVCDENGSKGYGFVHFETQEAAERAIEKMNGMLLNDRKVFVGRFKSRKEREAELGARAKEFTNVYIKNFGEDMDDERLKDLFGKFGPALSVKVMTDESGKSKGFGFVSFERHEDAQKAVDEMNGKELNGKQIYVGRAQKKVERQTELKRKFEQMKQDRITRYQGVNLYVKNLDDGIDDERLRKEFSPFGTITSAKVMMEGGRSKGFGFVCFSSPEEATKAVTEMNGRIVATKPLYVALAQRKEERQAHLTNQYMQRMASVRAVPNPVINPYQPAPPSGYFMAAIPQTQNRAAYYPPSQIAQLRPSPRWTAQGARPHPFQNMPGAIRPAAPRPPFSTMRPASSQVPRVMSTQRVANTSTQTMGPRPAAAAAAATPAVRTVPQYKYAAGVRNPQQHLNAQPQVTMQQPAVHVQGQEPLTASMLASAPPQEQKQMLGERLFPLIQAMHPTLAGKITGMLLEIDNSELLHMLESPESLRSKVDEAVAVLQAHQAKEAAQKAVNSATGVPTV

[4] = system: P388/ADR; experiment: cells; format: functional; conditions: Mus musculus
[5] = target: T2, Polyadenylate-binding protein 1; experiment: PABP1 MLLE–PAM2 binding inhibitor potency, dose response, biochemical, fluorescence polarization, FITC-PAM2 peptide (AID 602259); format: functional; conditions: read-out: IC50_Mean
[6] = system: SN12K1; experiment: cells; format: functional; conditions: Homo sapiens
[7] = system: P388; experiment: cells; format: functional; conditions: Mus musculus
[8] = target: T3, Caspase-6 (Homo sapiens, UniProt P55212); experiment: human caspase-6 inhibitors, dose response, biochemical, VEID-R110 fluorescence, cherry-pick (AID 720632)
T3 sequence (P55212 whole entry): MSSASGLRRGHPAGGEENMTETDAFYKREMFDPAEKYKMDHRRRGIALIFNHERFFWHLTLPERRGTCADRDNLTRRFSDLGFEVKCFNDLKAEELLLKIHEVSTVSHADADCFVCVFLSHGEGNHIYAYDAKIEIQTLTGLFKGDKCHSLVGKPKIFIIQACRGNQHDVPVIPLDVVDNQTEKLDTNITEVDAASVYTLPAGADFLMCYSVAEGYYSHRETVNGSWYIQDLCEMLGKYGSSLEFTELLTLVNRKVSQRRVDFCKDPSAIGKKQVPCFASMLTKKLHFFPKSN

[9] = Luminescence-based cell-based high throughput dose response assay to identify activators of the DAF-12 from the parasite S. stercoralis (ssDAF-12).; format: functional
[10] = target: T1, Oxysterols receptor LXR-beta; experiment: LXR agonists, Gal4 luciferase reporter, dose response, counter-screen for ssDAF-12 agonist project, cell-based, luminescence, HEK293, S. stercoralis campaign (AID 720737); format: functional; conditions: read-out: IC50 (the source's name)
[11] = target: T4, Voltage-gated N-type calcium channel alpha-1B subunit/Amyloid beta A4 precursor protein-binding family A member 1 (Homo sapiens, UniProt Q00975+Q02410); format: protein assay
T4 sequence (Q00975 whole entry): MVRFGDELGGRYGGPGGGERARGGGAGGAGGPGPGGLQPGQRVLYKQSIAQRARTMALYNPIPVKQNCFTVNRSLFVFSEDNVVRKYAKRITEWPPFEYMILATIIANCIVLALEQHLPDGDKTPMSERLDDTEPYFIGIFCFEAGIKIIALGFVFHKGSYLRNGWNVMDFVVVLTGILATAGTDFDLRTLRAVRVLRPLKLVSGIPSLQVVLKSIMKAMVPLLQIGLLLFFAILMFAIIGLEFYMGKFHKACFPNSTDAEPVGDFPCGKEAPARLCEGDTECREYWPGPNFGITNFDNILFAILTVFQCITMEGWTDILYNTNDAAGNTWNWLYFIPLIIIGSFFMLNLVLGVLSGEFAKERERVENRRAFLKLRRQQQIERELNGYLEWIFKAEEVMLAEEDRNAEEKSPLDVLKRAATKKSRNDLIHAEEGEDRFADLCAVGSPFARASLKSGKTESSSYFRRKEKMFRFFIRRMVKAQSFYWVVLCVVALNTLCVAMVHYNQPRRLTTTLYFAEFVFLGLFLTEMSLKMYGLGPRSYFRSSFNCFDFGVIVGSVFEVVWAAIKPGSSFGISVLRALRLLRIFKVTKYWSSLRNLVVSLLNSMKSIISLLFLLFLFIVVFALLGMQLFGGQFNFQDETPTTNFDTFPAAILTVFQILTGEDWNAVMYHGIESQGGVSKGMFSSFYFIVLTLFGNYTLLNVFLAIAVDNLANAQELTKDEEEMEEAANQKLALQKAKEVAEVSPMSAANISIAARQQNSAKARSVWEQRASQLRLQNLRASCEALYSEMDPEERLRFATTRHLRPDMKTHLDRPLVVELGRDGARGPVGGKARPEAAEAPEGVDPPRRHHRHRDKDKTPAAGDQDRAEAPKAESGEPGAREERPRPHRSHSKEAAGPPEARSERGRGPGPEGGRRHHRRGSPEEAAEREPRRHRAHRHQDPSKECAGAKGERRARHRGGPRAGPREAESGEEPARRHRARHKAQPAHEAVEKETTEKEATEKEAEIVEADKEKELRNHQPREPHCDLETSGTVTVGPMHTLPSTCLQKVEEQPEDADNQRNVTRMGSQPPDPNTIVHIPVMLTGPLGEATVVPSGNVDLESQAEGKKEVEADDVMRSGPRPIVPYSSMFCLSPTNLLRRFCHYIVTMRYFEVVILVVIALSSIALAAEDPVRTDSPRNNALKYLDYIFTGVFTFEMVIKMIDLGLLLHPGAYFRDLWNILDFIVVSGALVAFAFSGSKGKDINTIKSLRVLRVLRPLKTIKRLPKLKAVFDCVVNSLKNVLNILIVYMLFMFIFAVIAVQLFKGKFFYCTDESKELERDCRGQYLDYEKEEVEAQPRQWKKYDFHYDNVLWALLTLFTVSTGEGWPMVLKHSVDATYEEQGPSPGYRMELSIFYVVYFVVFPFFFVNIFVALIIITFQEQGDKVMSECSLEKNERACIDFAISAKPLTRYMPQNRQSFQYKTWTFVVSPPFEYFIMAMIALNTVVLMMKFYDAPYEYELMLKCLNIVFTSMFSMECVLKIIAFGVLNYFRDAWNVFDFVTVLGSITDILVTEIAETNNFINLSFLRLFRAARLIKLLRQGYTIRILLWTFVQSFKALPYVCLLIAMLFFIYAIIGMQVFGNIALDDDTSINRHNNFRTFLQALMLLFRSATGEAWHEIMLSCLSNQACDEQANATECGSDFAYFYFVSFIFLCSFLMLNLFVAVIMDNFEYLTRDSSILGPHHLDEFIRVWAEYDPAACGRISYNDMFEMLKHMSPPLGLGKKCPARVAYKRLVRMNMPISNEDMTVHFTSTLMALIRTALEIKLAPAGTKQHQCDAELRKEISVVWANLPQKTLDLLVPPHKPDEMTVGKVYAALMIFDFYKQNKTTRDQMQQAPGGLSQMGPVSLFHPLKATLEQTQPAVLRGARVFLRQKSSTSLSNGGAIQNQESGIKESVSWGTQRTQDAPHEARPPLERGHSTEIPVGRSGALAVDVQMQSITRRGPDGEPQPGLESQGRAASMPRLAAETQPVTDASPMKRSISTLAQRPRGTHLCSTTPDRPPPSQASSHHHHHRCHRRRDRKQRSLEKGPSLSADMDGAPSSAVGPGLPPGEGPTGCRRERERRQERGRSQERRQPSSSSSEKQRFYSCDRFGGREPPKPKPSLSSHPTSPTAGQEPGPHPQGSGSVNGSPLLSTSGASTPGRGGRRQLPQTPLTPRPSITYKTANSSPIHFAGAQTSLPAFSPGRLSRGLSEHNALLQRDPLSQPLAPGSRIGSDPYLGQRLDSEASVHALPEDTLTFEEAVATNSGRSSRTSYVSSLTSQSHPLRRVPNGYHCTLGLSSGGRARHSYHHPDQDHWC
T4 sequence (Q02410 whole entry): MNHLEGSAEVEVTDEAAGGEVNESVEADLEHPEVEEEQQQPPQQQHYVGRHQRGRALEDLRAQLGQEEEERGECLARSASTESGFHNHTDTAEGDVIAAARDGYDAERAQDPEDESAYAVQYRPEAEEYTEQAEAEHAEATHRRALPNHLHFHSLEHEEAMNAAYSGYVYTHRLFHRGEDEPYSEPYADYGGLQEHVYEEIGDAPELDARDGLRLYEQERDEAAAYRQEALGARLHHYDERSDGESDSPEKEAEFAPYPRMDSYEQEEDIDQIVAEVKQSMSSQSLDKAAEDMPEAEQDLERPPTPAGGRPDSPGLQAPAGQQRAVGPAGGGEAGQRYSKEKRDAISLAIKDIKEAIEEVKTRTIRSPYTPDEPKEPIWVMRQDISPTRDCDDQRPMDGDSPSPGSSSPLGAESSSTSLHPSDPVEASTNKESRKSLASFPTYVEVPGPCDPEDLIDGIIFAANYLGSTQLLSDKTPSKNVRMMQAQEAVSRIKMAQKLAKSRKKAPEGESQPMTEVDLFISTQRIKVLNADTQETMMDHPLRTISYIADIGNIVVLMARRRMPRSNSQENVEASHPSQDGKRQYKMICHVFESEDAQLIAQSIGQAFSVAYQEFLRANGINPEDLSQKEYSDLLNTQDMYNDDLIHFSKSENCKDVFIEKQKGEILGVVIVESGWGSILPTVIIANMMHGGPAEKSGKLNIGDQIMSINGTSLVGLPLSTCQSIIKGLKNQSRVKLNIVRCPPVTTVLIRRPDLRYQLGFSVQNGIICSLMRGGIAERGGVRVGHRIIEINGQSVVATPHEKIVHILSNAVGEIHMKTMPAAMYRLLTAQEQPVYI

[12] = target: T4, Voltage-gated N-type calcium channel alpha-1B subunit/Amyloid beta A4 precursor protein-binding family A member 1; format: protein assay; remark: listed apart in the source
[13] = target: T5, Mannose-6-phosphate isomerase (Homo sapiens, UniProt P34949); experiment: human PMI inhibitors, high substrate, primary screen, biochemical, fluorescence intensity, high mannose 6-phosphate (AID 1220)
T5 sequence (P34949 whole entry): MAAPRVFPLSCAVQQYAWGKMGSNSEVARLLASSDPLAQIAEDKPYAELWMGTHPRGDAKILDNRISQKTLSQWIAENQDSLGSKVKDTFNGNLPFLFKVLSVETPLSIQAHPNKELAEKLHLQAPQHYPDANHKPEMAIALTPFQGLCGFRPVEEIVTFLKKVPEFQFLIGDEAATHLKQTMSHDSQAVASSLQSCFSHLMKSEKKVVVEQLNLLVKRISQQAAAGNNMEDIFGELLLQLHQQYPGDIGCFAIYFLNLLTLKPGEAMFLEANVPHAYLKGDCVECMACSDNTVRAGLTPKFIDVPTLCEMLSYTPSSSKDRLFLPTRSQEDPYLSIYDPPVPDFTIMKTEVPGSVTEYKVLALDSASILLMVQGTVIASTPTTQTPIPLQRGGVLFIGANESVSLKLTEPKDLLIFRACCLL

[14] = target: DNA dC->dU-editing enzyme APOBEC-3A (Homo sapiens, UniProt P31941); experiment: APOBEC3A DNA deaminase inhibitors, dose response, biochemical (AID 504722); format: functional
[15] = target: Eukaryotic translation initiation factor 4E (Mus musculus, UniProt P63073); experiment: eIF4E–eIF4G protein interaction inhibitors, dose response, biochemical, TR-FRET (AID 855); format: functional;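 also: potency for disrupting eIF4E binding to eIF4GI seen as loss of FRET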
Chain of Eukaryotic translation initiation factor 4E (P63073 whole entry): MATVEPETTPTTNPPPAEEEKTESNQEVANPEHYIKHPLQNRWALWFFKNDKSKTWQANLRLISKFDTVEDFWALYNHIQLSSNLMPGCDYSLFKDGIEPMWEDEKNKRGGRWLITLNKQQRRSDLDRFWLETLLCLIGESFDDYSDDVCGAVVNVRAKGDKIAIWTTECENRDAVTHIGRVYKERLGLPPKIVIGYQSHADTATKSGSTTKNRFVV

[16] = target: DNA dC->dU-editing enzyme APOBEC-3G (Homo sapiens, UniProt Q9HC16); experiment: Dose Response confirmation of small molecule APOBEC3G DNA Deaminase Inhibitors via a fluorescence-based single-stranded DNA deaminase assay. [Related pubchem assays (depositor defined):AID493012, AID493028]; format: functional
Chain of DNA dC->dU-editing enzyme APOBEC-3G (Q9HC16 whole entry): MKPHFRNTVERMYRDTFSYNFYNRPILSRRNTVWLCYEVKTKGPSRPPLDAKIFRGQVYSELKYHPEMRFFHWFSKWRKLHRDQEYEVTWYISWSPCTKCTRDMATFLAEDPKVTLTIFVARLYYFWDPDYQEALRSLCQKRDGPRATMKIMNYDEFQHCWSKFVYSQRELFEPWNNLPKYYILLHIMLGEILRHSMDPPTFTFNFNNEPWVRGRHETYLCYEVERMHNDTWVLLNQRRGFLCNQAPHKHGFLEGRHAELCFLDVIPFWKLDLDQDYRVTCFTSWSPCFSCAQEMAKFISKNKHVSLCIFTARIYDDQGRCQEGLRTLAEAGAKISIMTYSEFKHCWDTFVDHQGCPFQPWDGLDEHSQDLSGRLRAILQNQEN

[17] = target: T6, Luciferin 4-monooxygenase (Photinus pyralis, UniProt P08659); experiment: Counter Screen for Luciferase-based Assay Positives. [Related pubchem assays: 620, 618, 411 ]
T6 sequence (P08659 whole entry): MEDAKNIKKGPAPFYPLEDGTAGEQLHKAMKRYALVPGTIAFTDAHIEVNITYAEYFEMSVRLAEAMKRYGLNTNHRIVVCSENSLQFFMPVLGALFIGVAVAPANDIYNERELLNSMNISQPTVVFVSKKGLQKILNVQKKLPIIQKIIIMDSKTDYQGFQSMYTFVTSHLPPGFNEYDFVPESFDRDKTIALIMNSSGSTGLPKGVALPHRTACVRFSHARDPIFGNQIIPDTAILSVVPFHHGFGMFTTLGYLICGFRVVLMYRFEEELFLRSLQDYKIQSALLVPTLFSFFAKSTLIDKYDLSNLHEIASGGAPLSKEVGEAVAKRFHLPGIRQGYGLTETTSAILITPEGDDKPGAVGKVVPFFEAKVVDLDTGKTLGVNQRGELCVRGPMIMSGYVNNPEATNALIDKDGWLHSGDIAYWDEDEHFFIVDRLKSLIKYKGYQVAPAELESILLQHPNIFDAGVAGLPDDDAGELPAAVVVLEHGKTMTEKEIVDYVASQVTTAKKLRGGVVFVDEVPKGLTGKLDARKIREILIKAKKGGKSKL

[18] = Luminescence Cell-Based Dose Response HTS to Identify Inhibitors of 5'UTR Stem-Loop Driven Prion Protein mRNA Translation in H4 Neuroglioblastoma Cells. [Related pubchem assays: 1827 (Project Summary), 1813 (Primary HTS)]; format: functional
[19] = target: T6, Luciferin 4-monooxygenase; experiment: firefly luciferase enzyme inhibitors, dose response, biochemical, luminescence (AID 1891)
[20] = Luminescence Cell-Based Dose Confirmation HTS to Identify Inhibitors of Platelet Dense Granule Release. [Related pubchem assays: 1663 (Primary HTS), 1678 (Summary of Project)]; format: functional
[21] = microbe, parasite or virus in culture; format: functional; conditions: Mycobacterium tuberculosis
[22] = system: HT-1080; experiment: cytotoxicity in HT1080 fibrosarcoma cells, cell-based, fluorescence readout (AID 620); format: functional; conditions: Homo sapiens
[23] = target: T7, Replicative DNA helicase DnaB (Mycobacterium tuberculosis, UniProt P9WMR3); experiment: DnaB intein splicing inhibitors, dose response, biochemical, cell-free fluorescence (AID 449749); format: functional
T7 sequence (P9WMR3 whole entry): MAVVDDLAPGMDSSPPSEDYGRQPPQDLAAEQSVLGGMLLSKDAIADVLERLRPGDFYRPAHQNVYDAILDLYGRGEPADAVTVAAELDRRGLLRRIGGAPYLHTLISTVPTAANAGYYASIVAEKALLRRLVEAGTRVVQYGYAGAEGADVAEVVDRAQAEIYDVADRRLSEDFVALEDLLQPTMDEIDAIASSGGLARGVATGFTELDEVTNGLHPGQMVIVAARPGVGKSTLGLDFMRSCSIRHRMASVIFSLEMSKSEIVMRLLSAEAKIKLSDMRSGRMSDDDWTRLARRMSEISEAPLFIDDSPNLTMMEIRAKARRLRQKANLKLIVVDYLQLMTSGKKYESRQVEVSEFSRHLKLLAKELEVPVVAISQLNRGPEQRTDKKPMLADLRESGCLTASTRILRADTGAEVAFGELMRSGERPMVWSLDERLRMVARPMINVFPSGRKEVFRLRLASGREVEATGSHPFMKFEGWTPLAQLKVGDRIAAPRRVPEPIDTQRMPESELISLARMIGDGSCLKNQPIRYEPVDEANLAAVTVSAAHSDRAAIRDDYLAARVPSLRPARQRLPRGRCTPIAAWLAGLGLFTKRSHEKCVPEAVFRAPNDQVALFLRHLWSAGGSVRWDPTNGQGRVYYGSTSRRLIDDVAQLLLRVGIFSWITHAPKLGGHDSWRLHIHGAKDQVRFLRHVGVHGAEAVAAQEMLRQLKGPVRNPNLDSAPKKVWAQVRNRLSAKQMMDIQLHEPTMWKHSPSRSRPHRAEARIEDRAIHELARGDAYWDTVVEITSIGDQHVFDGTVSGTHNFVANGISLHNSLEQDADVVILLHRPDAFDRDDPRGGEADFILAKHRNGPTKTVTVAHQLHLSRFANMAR

[24] = target: T8, Protein RecA (Mycobacterium tuberculosis, UniProt P9WHJ3); experiment: Fluorescence Cell-Free Homogeneous Dose Retest to Identify Inhibitors of RecA-Intein Splicing Activity. [Related pubchem assays (depositor defined):AID2097, AID2223, AID489010, AID492950]; format: functional
T8 sequence (P9WHJ3 whole entry): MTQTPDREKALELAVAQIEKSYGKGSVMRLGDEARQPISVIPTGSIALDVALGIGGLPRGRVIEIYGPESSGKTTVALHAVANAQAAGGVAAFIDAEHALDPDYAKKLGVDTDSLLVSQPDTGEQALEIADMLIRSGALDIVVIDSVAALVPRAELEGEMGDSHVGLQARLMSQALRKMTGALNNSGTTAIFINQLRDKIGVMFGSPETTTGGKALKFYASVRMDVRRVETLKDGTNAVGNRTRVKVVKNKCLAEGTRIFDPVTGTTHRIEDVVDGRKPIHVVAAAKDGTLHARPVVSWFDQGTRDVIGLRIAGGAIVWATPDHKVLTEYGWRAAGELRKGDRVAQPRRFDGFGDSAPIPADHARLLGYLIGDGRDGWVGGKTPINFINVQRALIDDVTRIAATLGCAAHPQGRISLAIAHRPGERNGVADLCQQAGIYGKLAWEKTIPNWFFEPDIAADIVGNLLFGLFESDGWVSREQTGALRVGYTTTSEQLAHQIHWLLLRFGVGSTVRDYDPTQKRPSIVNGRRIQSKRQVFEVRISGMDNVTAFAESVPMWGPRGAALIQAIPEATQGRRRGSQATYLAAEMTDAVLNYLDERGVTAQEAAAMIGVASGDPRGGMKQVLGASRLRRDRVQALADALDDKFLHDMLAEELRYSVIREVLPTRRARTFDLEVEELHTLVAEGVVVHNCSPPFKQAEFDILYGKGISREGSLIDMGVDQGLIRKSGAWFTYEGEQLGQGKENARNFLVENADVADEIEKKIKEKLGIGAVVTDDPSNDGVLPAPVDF

[25] = inhibitors of intracellular T. cruzi replication, confirmation, NIH3T3 host cells, beta-gal luminescence (AID 2044); format: functional, cell-based;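 also: intracellular parasites grown in NIH/3T3 mouse fibroblasts as host cells; luminescent beta-galactosidase reporter signal from transgenic T. cruzi replicating inside host cells; inhibitors lower the luminescence signal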
[26] = cytotoxicity toward NIH3T3 fibroblasts, dose response, counter-screen, cell-based, ATP luminescence, mouse fibroblasts (AID 2010); format: functional;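 also: cells exposed to compound for about 90 hours before reading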
[27] = target: T1, Oxysterols receptor LXR-beta; format: functional, cell-based; remark: listed apart in the source

## Fc1ccccc1-c1nc(-c2ccccc2)no1
[1]
  EC50: > 67.5 µM (inactive)
[2]
  EC50: > 67.5 µM (inactive)

## CN1N=C(N)c2cn(C3OC(COP(=O)(O)O)C(O)C3O)c3ncnc1c23 (stereo not given)
[3]
  IC50: > 66 µM (inactive)
[4]
  GI50: 0.5 µM (active)
[5]
  IC50: > 66 µM (inactive)
[6]
  GI50: 32.8 µM (inactive)
[7]
  GI50: 0.5 µM (active)
[8]
  AC50: 29.6 µM (active)

## Cc1ccc(C(=O)C2CC2)c(C)c1
[9]
  IC50: > 67.4 µM (inactive)
[10]
  EC50: > 67.4 µM (inactive)

## CCOC(=O)c1ccc(/N=c2\ssnc2Cl)cc1
[11]
  IC50: 11.5 µM (active)
[12]
  IC50: 7.13 µM (active)
[13]
  IC50: > 50 µM (not active)
[14]
  IC50: > 100 µM (inactive)
[15]
  IC50: 50 µM (inactive)
[16]
  IC50: 13.8 µM (active)

## OC1=C(/C=N/c2ccc3c(c2)OCO3)CCc2ccccc21
[17]
  EC50: 2.31 µM (active)
[18]
  EC50: 7.7 µM (active)
[19]
  EC50: 0.871 µM (active)
[20]
  EC50: 7.07 µM (active)
[21]
  CC50: > 40 µM (active)
[22]
  EC50: > 50 µM (not active)
[13]
  IC50: 0.829 µM (active)
[23]
  AC50: > 380 µM (inactive)
[24]
  EC50: 0.43 µM (active)

## CN1CCN(/C=N/c2sc3c(c2C#N)CCCCC3)CC1
[19]
  EC50: > 112 µM (not active)
[20]
  EC50: > 112 µM (not active)
[25]
  EC50: 1.01 µM (active)
[26]
  EC50: > 60 µM (not active)
[27]
  EC50: > 67.5 µM (inactive)
